System: Hek293 cells
Assay: Fluorescence staining experiment on cells, observed by two-photon excitation fluorescence microscopy
Format: cell-based, Human
Conditions: for emission of a red fluorescence from the stained cells by two-photon excitation fluorescence microscopy: Hek293 cells stained at 1 μmol dm^−3 for 12 hours, band pass filter central wavelength 650 nm; for fluorescence staining of HeK293 cells: final concentration 1 μmol dm^−3, final DMSO 0.1% (v/v), incubated for 12 hours
Description: Human embryonic kidney cells, namely, Hek293 cells were used as model cells for staining. The Hek293 cells were cultured in Dulbecco's Modified Eagle's Medium (DMEM) containing 10% (v/v) fetal bovine serum and 1% (v/v) […] and streptomycin under conditions of 37° C. and 5% CO2.
For preparation of microscopic observation, Hek293 cells were subcultured on a 35-mm glass-based dish, to result in a cell density of 1×10^5 cells/dish. 24 hours after the subculture, adhesion of the cells to the dish was confirmed by microscopic observation. The medium was removed from the dish, and the resulting cells were then washed with a phosphate buffered saline (PBS) twice. 2 mL of DMEM medium not containing phenol red (final concentration of PY: 1 μmol dm^−3, final DMSO concentration: 0.1% (v/v)), to which 2 μL of dimethyl sulfoxide (DMSO) solution of the 1×10^−3 mol/dm^−3 naphthalene derivative (I), anthracene derivative (II) or pyrene derivative (III) had been added, was placed in the dish, and it was then incubated for 12 hours for staining. Immediately before microscopic observation, the medium containing the pigment was removed from the dish, and PBS was then used to wash the cells twice. After that, 2 mL of the DMEM medium not containing phenol red was added to the dish.
A two-photon excitation fluorescence microscope was produced using Optical Block (Hamamatsu Photonics K. K.). As a light source, Femtosecond titanium-sapphire laser (Mira900, Coherent) was used. A mirror unit equipped with a Galvano scanner for scanning a focal point, a short-pass dichroic mirror (FF750-SDi02-25×36, Semrock) having a cutoff wavelength at 750 nm, and a band pass filter (FF01-650/60-25, Semrock) having a central wavelength at 650 nm was inserted into the optical system. For detection of fluorescence, a photomultiplier tube (R928, Hamamatsu Photonics K. K.) was used, and DC was detected at an applied voltage of 1000 V, through a preamplifier (5 MHz)-equipped socket. USB-6251 BNC was used as DAQ, and Lab VIEW2011 (National Instruments) was used as a platform of the control program. As a sample stage, KZGO620-G was used, and as objective lens, infinity corrected objective lens with a magnification of 40 and NA of 1.15 was used.

| Compound | emission of a red fluorescence from the stained cells by two-photon excitation fluorescence microscopy | fluorescence staining of HeK293 cells |
| --- | --- | --- |
| C[n+]1ccc(/C=C/c2ccc3cc4cc(/C=C/c5cc[n+](C)cc5)ccc4cc3c2)cc1 [anthracene derivative (II)] | emission of a red fluorescence from the aforementioned cells was observed | could achieve the fluorescence staining of HeK293 cells |
| CCCCc1cc(C=Cc2cc[n+](C)cc2)c2ccc3c(CCCC)cc(C=Cc4cc[n+](C)cc4)c4ccc1c2c43.[I-].[I-] [pyrene derivative (III)] | emission of a red fluorescence from the aforementioned cells was observed | could achieve the fluorescence staining of HeK293 cells |
| C[n+]1ccc(/C=C/c2ccc3cc(/C=C/c4cc[n+](C)cc4)ccc3c2)cc1 [naphthalene derivative (I)] | emission of a red fluorescence from the aforementioned cells was observed | could achieve the fluorescence staining of HeK293 cells |

— patent publication US20170015626A1, “TWO-PHOTON-ABSORBING COMPOUND” (OTSUKA ELECTRONICS CO., LTD., priority 2014, published 2017)
